Assay results reported in patent US11564986B2, “Approach for treatment of cancer via immunomodulation by using talabostat” (ONKOSXCEL THERAPEUTICS, LLC, priority 2015, dated 2023).

Legend:
melanoma = details: monotherapy or combination; cited from earlier work
[1] = tested on: pancreatic and lung cancer; details: Talabostat alone or with cytokine or chemotherapeutic agents; cited from earlier work
[2] = tested on: MC38 mouse colon cancer cell line; test: Antitumor effect in MC38 mouse model of colon adenocarcinoma (tumor volume, tolerability; Study 1 and Study 2); type: in vivo
Description: (§1) Six to seven-week-old female C57BL/6 mice were used in the studies. Mice received food and water ad libitum. The study protocol, the procedures involving the care and use of animals were reviewed and approved by the Institutional Animal Care and Use Committee (IACUC) to ensure compliance with the regulations of the Association for Assessment and Accreditation of Laboratory Animal Care (AAALAC).
MC38 mouse colon cancer cell line was provided by GenScript. The tumor cells were maintained as monolayer culture in DMEM supplemented with 10% fetal bovine serum (FBS), 1% Glutamax® and 1% Penicillin-Streptomycin at 37° C. in an atmosphere with 5% CO2. The cells were routinely subcultured every 2 days to maintain growth at exponential phase. The tumor cells growing in exponential growth phase were harvested by trypsinization, followed by centrifugation at 335×g relative centrifugal force (RCF) in a centrifuge. The supernatant was subsequently removed by aspiration. Cell pellet was resuspended in approximately 10× volume of cell culture medium and counted. The cell suspension was centrifuged again and processed as above and finally resuspended in HBSS−/− at a density of 1×10^7 cells per ml. Cell viability was determined to be 95% by trypan blue staining. Cell suspensions were implanted in the subcutaneous space of the flank of mice of female C57BL/6 mice (2.0×10^6 MC-38 cells in 0.2 mL Hanks Balanced Salt Solution). Mice were inoculated subcutaneously in the right lower flank (near the dorsal thigh region) with a single volume of 0.1 ml cell suspension containing about 1×10^6 cells.
Tumor size was measured twice per week in 2 dimensions using a caliper (recorded up to one decimal point). Tumor volume, expressed in mm^3, was calculated using the following formula, in which “a” and “b” were the long and the short diameters of a tumor, respectively. V (mm^3)=(a×b^2)/2
Animals were weighed and randomized into treatment groups when the mean tumor size was around 120 mm^3 on Day 0.
Data related to tumor volume, tumor weight, and body weight were presented as mean and the standard error of the mean (SEM). Statistical analyses were conducted using Student's t-test. P<0.05 was considered statistically significant. * and ** indicate P<0.05 and P<0.01, respectively.
The antitumor effect of single dose (qd) as well as twice daily (bid) administration of Talabostat alone and in combination with PD-1 antagonist at various dose schedules was evaluated in MC-38 (murine colon) tumor bearing mice. After the tumors were established, mice were sorted into various groups with a mean tumor volume of ˜200 mm^3. The test article and antibody were administered according to the dosing schedules described in Tables 5 and 6.

[3] = in vivo; cited from earlier work
CT26 tumor cells = test: Immunophenotyping of CT26 tumor samples by quantitative PCR (NK cells, perforin, granzyme B, Tregs); type: in vivo; details: CT26, day 7 after first dosing; Talabostat 20 μg/mouse qd, PD-1 antagonist 5 mg/kg
Description: as §1, with “Mice (Balb/c) corresponding” for “Six”, “20±2 g weight,” for “seven-week-old female C57BL/6 mice were used in the studies. Mice”
Tumor Model The CT26 tumor cells were cultured in RPMI1640 medium supplemented with 10% heat inactivated fetal bovine serum, 100 U/ml penicillin and 100 μg/ml streptomycin, at 37° C. in an incubator of 5% CO2. The tumor cells were routinely subcultured three times per week. The cells growing in an exponential growth phase were harvested and counted for tumor inoculation. […]
The immuno-modulatory effect of the single dose (20 μg/mouse qd) administration of Talabostat alone and in combination with PD-1 antagonist (5 mg/kg), at various dose schedules was analysed by collecting the blood and the tumor samples 7 days after the first dosing the mice.
Tumor RNA samples were extracted from the frozen tumor tissues using the Trizol reagent. […] Quantitative PCR were conducted using a master mix from Invitrogen (Cat. #4309155) on an ABI 7900HT Fast Real-Time PCR System. The results were analyzed using a Delta Delta Ct method. […]

Compound | Response rate in melanoma patients (melanoma) | Primary and secondary endpoints in clinical trials [1] | Mean (±SEM) tumor volume ([2]; Study 1, MC38, Day 13, Talabostat 10 μg twice daily p.o.) | Mean (±SEM) tumor volume ([2]; Study 1, MC38, Day 13, Talabostat 20 μg twice daily p.o.) | Antitumor effect compared with the vehicle control group ([2]; Study 1, MC38, single treatment groups) | Mean (±SEM) tumor volume ([2]; Study 2, MC38, Day 11, Talabostat 2.5 μg BID p.o.) | Mean (±SEM) tumor volume ([2]; Study 2, MC38, Day 11, Talabostat 5 μg BID p.o.) | Mean (±SEM) tumor volume ([2]; Study 2, MC38, Day 11, Talabostat 10 μg BID p.o.) | Mean (±SEM) tumor volume ([2]; Study 2, MC38, Day 11, Talabostat 20 μg QD p.o.) | Most common adverse events [3] | NK cell activation, perforin (Pfr1) release in tumor (relative mRNA) (CT26 tumor cells)
Ipilimumab: CTLA-4 antagonist; human monoclonal antibody, CAS No. 477202-00-9 | 11% |  |  |  |  |  |  |  |  |  | 
Nivolumab: anti-PD-1 antibody, CAS Registry Number 946414-94-4 | 32% |  |  |  |  |  |  |  |  |  | 
CC(C)[C@H](N)C(=O)N1CCC[C@H]1B(O)O [Talabostat, [(2R)-I-I [(2S)-2-amino-3-methyl-1-oxobutyl]-2-pyrrolidinyl] boronic acid] |  | unable to meet primary as well as secondary endpoints | 1.66 (±0.48) cc | 1.30 (±0.42) cc | significant better effect | 3.2 (±0.48) cc | 2.9 (±0.42) cc | 2.9 (±0.18) cc | 2.0 (±0.43) cc | edema/peripheral swelling, hypotension, hypovolemia, and dizziness | activation in terms of release of perforin
